The subject of one data set is sphingomyelinase (SMase). In words: Real-time PCR gene expression in NHEK cells: sphingomyelinase. Type of data set: cell-based, human. The following applies: 1 μM, seven days, relative to control = 1.00. On the procedure:
(§1) Since glucosyladenosines were confirmed in Experiment 5 to have an action of enhancing the differentiation of keratinocytes effective for skin improvement, a test for examining the change of the expression level of a molecular marker gene of keratinocytes, as an index, was performed as follows using a real-time PCR analysis method to examine the above action in more detail. The expression level of a ceramide-synthesis-related gene was also studied to examine the influence of glucosyladenosines on ceramide synthesis that had been known to have an important role in moisturizing the skin and barrier function of the skin and deemed to be effective for skin improvement. As genes for analysis, profilaggrin (PFG: a later differentiation marker) and involucrin (INV: an early differentiation marker) as differentiation markers of keratinocytes and β-glucocerebrosidase (GCase) and sphingomyelinase (SMase) as ceramide-synthesis-related enzymes were selected, and a gene for cyclophilin B (CypB) as an internal standard upon practicing PCR reaction was used (see FIG. 7). NHEK cells were inoculated to 6-well plate coated with collagen in an amount of 8×10^4 cells/1.5 ml/well, cultured with EpiLife medium, and cultured at 37° C. for two days under a 5 v/v % CO2 condition. Thereafter, the culture medium was removed, and the resulting cells were added with a fresh EpiLife medium containing 5′-glucosyladenosine, 3′-glucosyladenosine, or adenosine in a volume of 1.5 ml/well (giving a final concentration of 1 μM of any one of glucosyladenosines and adenosine), and cultured for seven days while replacing the medium with a fresh one containing any one of glucosyladenosines and adenosine in a volume of 1.5 ml/well every other day. After completion of the culture, each well was washed twice with PBS(K−), followed by adding 0.2 ml/well of 0.025% by mass of trypsin/EDTA solution to the resulting cells and allowing the cells to stand at an ambient temperature for five minutes to detach them from the plates. […]
(Real-time PCR tracks product formation cycle by cycle.)

For another data set, the system named is involucrin (INV). In words: Real-time PCR gene expression in NHEK cells: involucrin. Type of data set: cell-based, human. Particulars: 1 μM, seven days, relative to control = 1.00. On the procedure:
as §1

Data set [1] has as its target T1, adenosine deaminase (ADA) (Homo sapiens, UniProt P00813).
T1 sequence (P00813 1-363): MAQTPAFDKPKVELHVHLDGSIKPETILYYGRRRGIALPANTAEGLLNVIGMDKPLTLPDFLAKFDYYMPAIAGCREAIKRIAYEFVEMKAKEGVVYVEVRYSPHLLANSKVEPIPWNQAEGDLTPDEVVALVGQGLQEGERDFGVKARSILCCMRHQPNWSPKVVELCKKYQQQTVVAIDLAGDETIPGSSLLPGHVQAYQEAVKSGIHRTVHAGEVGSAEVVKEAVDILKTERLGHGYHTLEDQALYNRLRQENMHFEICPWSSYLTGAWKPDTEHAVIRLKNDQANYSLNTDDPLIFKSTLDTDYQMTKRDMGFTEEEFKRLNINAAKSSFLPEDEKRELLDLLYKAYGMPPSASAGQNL
Particulars: 0.5 mM, pH 7.5. On the procedure: Adenosine has been confirmed to be promptly hydrolyzed into inosine and hypoxanthine by adenosine deaminase (ADA) intrinsically present in living bodies. To examine the possibility of sustainably exerting effects by glucosyladenosines as adenosine glycosides, a test for confirming whether 5′- and 3′-glucosyladenosines are hydrolyzed in living bodies was conducted using a cell lysate of a normal human fetal fibroblast as a source for an adenosine metabolism-relatedenzyme. “NHDF cells”, a normal human fetal fibroblast, commercialized by Kurabo Industries, Osaka, Japan (called “NHDF cells”, hereinafter), which had been diluted with “Dulbecco's Modified Eagle Medium “Nissui” (abbreviated as […], hereinafter), a product name of a Dulbecco's Medium Essential Medium, commercialized by Nissui Pharmaceutical Co., Ltd., Tokyo, Japan, containing 10 v/v % fetal calf serum […] (called “FCS”, hereinafter) was inoculated to 150 cm^2 culture flasks (commercialized by Corning, N.Y., USA) in a cell amount of 1.5×10^6 cells/20 ml/flask, and cultured for four days. After removing each culture supernatant, the resulting cells were treated with “Trypsin-EDTA”, a product name of 0.05% by mass of trypsin/EDTA solution, commercialized by Gibco, NY., USA, followed by collecting the cell suspensions from each flask. […] CELL DISROPTOR 185” thrice (30 sec×twice for each) for cell disruption, centrifuged at 15,000 rpm for five minutes to collect supernatants as a cell lysate. 0.9 ml of the cell lysate and 0.1 ml of phosphate buffered saline (PBS), which had been prepared by dissolving either the 5′-glucosyladenosine that had had been prepared in Experiment 1-2 or the 3′-glucosyladenosine that had had been prepared in Experiment 2 to give a concentration of 5 mM, were mixed, stirred, and allowed to react at 37° C. Reaction solutions at reaction times 0, 1, 7 and 24 hours after initiating the reaction were collected, treated with the same method as in Experiment 3, and quantified for adenosine and glucosyladenosines by an HPLC method. Relative values for concentrations of these compounds at respective reaction times were calculated when the concentration at the reaction initiation for each compound was regarded as 100%, and they are shown in Table 3 as residual percentages of adenosine or glucosyladenosines.

Data set [2] deals with β-glucocerebrosidase (GCase). In words: Real-time PCR gene expression in NHEK cells: β-glucocerebrosidase. The class given is cell-based, human. Particulars: 1 μM, seven days, relative to control = 1.00. On the procedure: as §1

Like-named read-outs stand apart in the source and are kept apart here. Marks after values point to notes of the source that are not given here.

As for `Nc1ncnc2c1ncn2[C@@H]1O[C@H](CO[C@H]2O[C@H](CO)[C@@H](O)[C@H](O)[C@H]2O)[C@@H](O)[C@H]1O` [5′-Glucosyladenosine, α-D-glucopyranosyl-(1→5′)-adenosine], the “Gene expression level SMase” value in the data set on sphingomyelinase (SMase) is 2.57**. Moreover, the “Gene expression level INV” value with involucrin (INV) is 1.66**. For the same molecule, the Remaining percentage is 100% in data set [1] (0 h), 101% in data set [1] (1 h), 100% in data set [1] (7 h) and 96% in data set [1] (24 h). The “Gene expression level GCase” value in data set [2] is listed as 2.68**.
With `Nc1ncnc2c1ncn2[C@@H]1O[C@H](CO)[C@@H](O[C@H]2O[C@H](CO)[C@@H](O)[C@H](O)[C@H]2O)[C@H]1O` [3′-Glucosyladenosine, α-D-glucopyranosyl-(1→3′)-adenosine], the “Gene expression level SMase” value with sphingomyelinase (SMase) was 2.03*. Besides, the “Gene expression level INV” value in the data set with involucrin (INV) is 1.52*. For the same molecule, the Remaining percentage in data set [1] (0 h) worked out at 100%; in data set [1] (1 h), 95%; in data set [1] (7 h), 86%; in data set [1] (24 h) it was 17%. For the same molecule, the “Gene expression level GCase” value in data set [2] is on record as 2.08*.
For `Nc1ncnc2c1ncn2[C@@H]1O[C@H](CO)[C@@H](O)[C@H]1O` [Adenosine, reference compound], the “Gene expression level SMase” value in the data set with sphingomyelinase (SMase) was determined as 1.35. Also, in the data set on involucrin (INV), the “Gene expression level INV” value worked out at 1.15. Besides, the Remaining percentage in data set [1] (0 h) was found to be 100%; in data set [1] (1 h), 53%; in data set [1] (7 h), 0%; in data set [1] (24 h), 0%. For the same molecule, in data set [2], the “Gene expression level GCase” value amounted to 1.37.

The record behind these values is US9492368B2, “External preparation for skin” (HAYASHIBARA CO., LTD., priority 2011, dated 2016).
